Our source for the GI50 and TGI values is PubChem BioAssay (NCI).

Experiment in all cases: NCI tumour cell line growth inhibition, 48 h
Test [1] relates to SNB-75 CNS.
Test [2] has as its system PC-3 prostate.
The subject of test [3] is OVCAR-4 ovarian.
For test [4], the system named is SNB-19 CNS.
The test system of test [5] is A498 renal.
For test [6], the system named is SF-295 CNS.
For test [7], the system named is A549 NSCLC.
The test system of test [8] is UO-31 renal.
In test [9] the test system is MDA-MB-231 breast.
The subject of test [10] is TK-10 renal.

“And” between values parts separate entries of the source, which are not always exact repeats. Equal values may be shown once.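 How tested: cells in 96-well plates exposed to compound for 48 hours at five concentrations. GI50 is the concentration that inhibits growth by half. At the TGI there is no net growth.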

`CC(C)COc1nc2c(c(=O)n(C)c(=O)n2C)n1C`: the GI50 in [1] was 47 µM; in test [2], greater than 100 µM; in test [3], greater than 100 µM; in test [4], greater than 100 µM; in test [5], greater than 100 µM; in test [6], greater than 100 µM. In addition, the GI50 in [7], in test [8] and in [9] was greater than 100 µM each time. The TGI in test [1], in test [2], in test [3], in test [4], in test [5] and in test [6] was greater than 100 µM in each case. For the same molecule, the TGI in test [7], in test [8] and in test [9] was greater than 100 µM each time.
Turning to `COc1cccc(Nc2nc3ccccc3c3occc23)c1`, the GI50 in test [2] was 13.8 µM; in test [3], 11.2 µM; in test [4], 12.9 µM; in [10], 5.79 µM; in test [6], 3.92 µM; in [7], 6.01 µM. The GI50 was 6.98 µM in [8] and 8.53 µM in [9]. Besides, the TGI in test [2] amounted to 34.3 µM; in test [3], 29.8 µM; in test [4], 25.8 µM; in [10], 17.2 µM; in [6], 14.6 µM; in test [7], 22.4 µM. In addition, the values for the TGI in test [8] and in [9] were 27.6 µM and 31.6 µM, respectively.
Turning to `CC1=CC(C)(C)NN1C1=NS(=O)(=O)c2ccccc2N1C`, the TGI in [2], in test [3], in test [4], in test [10], in test [5] and in test [6] was greater than 100 µM in each case. Moreover, the TGI in test [7], in test [8] and in [9] was greater than 100 µM in each case.
As for `Cc1cc2c(-c3nc4ccccn4c3N)c(O)c(O)cc2c(O)c1-c1c(C)cc2c(-c3nc4ccccn4c3N)c(O)c(O)cc2c1O`, the GI50 in test [1] was 1.02 µM; in test [2] it was 0.692 µM; in test [3], 4.85 µM; in test [4], 0.661 µM; in test [10], 1.51 µM; in test [7], 0.688 µM. Also, the values for the GI50 in [8] and in test [9] were 1.12 µM and 3.11 µM, respectively. Also, the TGI in test [1], in test [2], in test [3], in test [4], in test [10] and in test [7] was greater than 25 µM throughout. Also, the TGI in [8] and in test [9] was greater than 25 µM each time.
On to `O=[N+]([O-])c1cc([N+](=O)[O-])c(Nn2c3ccccc3c3ccccc32)c([N+](=O)[O-])c1`, for which the GI50 in [1] is 0.204 µM; in [2] it was 0.316 µM; in [3] it was 0.342 µM; in test [4] it was 0.376 µM; in test [10] it was 0.315 µM; in test [5] it was 0.228 µM. The GI50 was 0.334 µM in [7] and 0.245 µM in test [8]. In addition, the TGI in [1] was 0.92 µM; in test [2], 7.37 µM and 11.3 µM; in test [3], greater than 100 µM; in [4] it was 54 µM and > 100 µM; in test [10], 11 µM and > 100 µM; in [5], 0.624 µM. Further, the TGI is 0.79 µM in [6]; 14.3 µM and > 100 µM in test [7]; 6.63 µM and 0.916 µM in [8].
For `C/C=C1/CC(C)C(C)(O)C(=O)OCC2C(O)CN3CCC(OC1=O)C23` (stereo not given), the TGI in test [1], in test [2], in test [3], in test [4], in [10] and in [5] was greater than 100 µM in each case. Also, the TGI in [6], in test [7] and in [9] was greater than 100 µM throughout.
Take `CCN(CC)CCCC(C)N/C(=C1\C(=O)NC(=O)\C1=C(/NC(C)CCCN(CC)CC)c1cccc(OC)c1)c1cccc(OC)c1` (stereo not given): the GI50 in test [1] is 0.735 µM; in test [2], 0.877 µM; in test [3], 0.742 µM; in test [4], 1.99 µM; in [5], 0.791 µM; in [6], 0.813 µM. Also, the figures for the GI50 in test [7], in [8] and in test [9] were 0.819 µM, 0.733 µM and 0.574 µM, respectively. Further, the TGI in test [1] is 1.67 µM; in test [2], 2.56 µM; in test [3], 2.2 µM; in test [4], 9.01 µM; in [5], 5.58 µM; in test [6] it was 1.78 µM. For the same molecule, the figures for the TGI in test [7], in test [8] and in [9] were 1.8 µM, 1.49 µM and 1.47 µM, respectively.
For `COc1ccc(/C=C2/SC(Nc3nc(-c4nc(NC5=NC(=O)/C(=C\c6ccc(OC)cc6)S5)sc4C)c(C)s3)=NC2=O)cc1`, the GI50 in [2] is 0.787 µM; in test [4] it was 5.81 µM; in [10] it was 0.172 µM; in [5], 0.806 µM; in [6], 0.255 µM; in [7], 1.14 µM. In addition, the figures for the GI50 in test [8] and in test [9] were 4.27 µM and 1.35 µM, respectively. The TGI is 9.95 µM in test [2]; greater than 50 µM in [4]; 0.77 µM in [10]; 4.22 µM in test [5]; 4.97 µM in test [6]; 17.2 µM in [7]. The results for the TGI in test [8] and in test [9] were greater than 32.2 µM and 7.14 µM, respectively.
In the case of `O=C(c1ccc(Cl)cc1)C(O)c1ccc(Cl)cc1` (stereo not given), the TGI in test [1], in test [2], in [3], in test [4], in test [10] and in [6] was greater than 100 µM in each case. Further, the TGI in test [7], in test [8] and in test [9] was greater than 100 µM in each case.
Regarding `CC(=O)c1cc(C(=O)c2ccc3c(c2)Sc2ccccc2N3)n2ccccc12`, the GI50 in [2] is 0.00453 µM and 0.00332 µM; in test [3] it was 0.0145 µM; in [4] it was 0.00824 µM; in [5] it was 0.00225 µM and 0.00332 µM; in [6], 0.00284 µM; in test [7], 0.00613 µM and 0.00332 µM. The GI50 in [8] is 0.00579 µM and 0.00332 µM; in test [9], 0.00651 µM and 0.0203 µM. In addition, the TGI in [2] was greater than 33.2 µM; in test [6], 0.076 µM; in [7] it was greater than 33.2 µM; in test [8] it was greater than 33.2 µM.
